Calls of active or inactive are those of the source. No cut-off for these calls is given here.
Columns and labels:
Type in all cases: functional, cell-based
Splenocyte [1] = test: Induction of IFN-gamma production in C57BL/6 mouse splenocytes after 48 hrs by cytometric bead array method
Splenocyte [2] = test: Induction of IL2 production in C57BL/6 mouse splenocytes after 48 hrs by cytometric bead array method
Splenocyte [3] = test: Induction of IL4 production in C57BL/6 mouse splenocytes after 48 hrs by cytometric bead array method
Splenocyte [4] = test: Induction of IL10 production in C57BL/6 mouse splenocytes after 48 hrs by cytometric bead array method
Splenocyte [5] = test: Induction of IL13 production in C57BL/6 mouse splenocytes after 48 hrs by cytometric bead array method

Row | Structure (SMILES) | Activity (Splenocyte [1]) | Activity (Splenocyte [2]) | Activity (Splenocyte [3]) | Activity (Splenocyte [4]) | Activity (Splenocyte [5])
1 | CCCCCCCCCCCCCCCCCCCCCCCCCC(=O)N1[C@@H](CCCCCCCCCCCCC)C[C@@H](O)[C@@H]1CO[C@H]1O[C@H](CO)[C@H](O)[C@H](O)[C@H]1O | inactive | inactive | inactive | inactive | inactive
2 | CCCCCCCCCCCCCCCCCCCCCCCCCC(=O)N1[C@H](CCCCCCCCCCCCC)C[C@@H](O)[C@@H]1CO[C@H]1O[C@H](CO)[C@H](O)[C@H](O)[C@H]1O | Active | Active | Active | Active | Active
3 | CCCCCCCCCCCCCCCCCCCCCCCCCC(=O)N1[C@H](CCCCCCCCCCCCCC)[C@@H](O)[C@@H]1CO[C@@H]1O[C@H](CO)[C@H](O)[C@H](O)[C@H]1O | inactive | inactive | inactive | inactive | inactive
4 | CCCCCCCCCCCCCCCCCCCCCCCCCC(=O)N1[C@@H](CCCCCCCCCCCCCC)[C@@H](O)[C@@H]1CO[C@H]1O[C@H](CO)[C@H](O)[C@H](O)[C@H]1O | Active | Active | Active | Active | Active
5 | CCCCCCCCCCCCCCCCCCCCCCCCCC(=O)N1[C@@H](CCCCCCCCCCCCC)C[C@@H](O)[C@@H]1CO[C@@H]1O[C@H](CO)[C@H](O)[C@H](O)[C@H]1O | inactive | inactive | inactive | inactive | inactive
6 | CCCCCCCCCCCCCCCCCCCCCCCCCC(=O)N1[C@@H](CCCCCCCCCCCCCC)[C@@H](O)[C@@H]1CO[C@@H]1O[C@H](CO)[C@H](O)[C@H](O)[C@H]1O | inactive | inactive | inactive | inactive | inactive
7 | CCCCCCCCCCCCCCCCCCCCCCCCCC(=O)N1[C@H](CCCCCCCCCCCCC)C[C@@H](O)[C@@H]1CO[C@@H]1O[C@H](CO)[C@H](O)[C@H](O)[C@H]1O | inactive | inactive | inactive | inactive | inactive
8 | CCCCCCCCCCCCCCCCCCCCCCCCCC(=O)N1[C@H](CCCCCCCCCCCCCC)[C@@H](O)[C@@H]1CO[C@H]1O[C@H](CO)[C@H](O)[C@H](O)[C@H]1O | inactive | inactive | inactive | inactive | inactive
